The target of data set [1] is T1, α1G T-type calcium channel (Homo sapiens, UniProt O43497).
T1 construct: host or cells: HEK293
Put plainly: Assay for % inhibiting activity against T-type calcium channel using FDSS6000. The class given is cell-based. The following applies: HEK293 cells expressing α1G; for inhibition at 10 µM: HEK293, 10 μM. As to the method: In the present invention, in order to search an efficient inhibitor against T-type calcium channel, a primary assay for T-type calcium channel inhibiting activity was conducted by a high-efficient assay using FDSS6000, wherein mammal HEK293 cell lines (originated from human kidney carcinoma cells) which specifically expresses α1G of T-type calcium channel was used for primary assay. Through the primary assay, compounds which show meaningful inhibition effects were selected. The selected compounds were used in a second assay for T-type calcium channel inhibiting activity using electrophysiological whole cell patch clamp method, wherein mammal HEK293 cell lines (originated from human kidney carcinoma cells) which specifically expresses α1G of T-type calcium channel was used for the second assay.
At 12-24 hours before being used for this assay, cells of HEK293 cell line (α1G cell line: KCTC 10519BP, Korean Collection for Type Cultures), which stably express α1G T-type calcium channel and Kir2.1, were sub-cultured in a poly-L-lysine treated 96-well plate with the density of 4×10^4 per a well using a 96-well cell dispenser (Titertek). On the of assay, the 96-well plate to which the cells were attached were washed three times with HEPES buffer solution (150 mM of NaCl, 5 mM of KCl, 1 mM of MgCl2, 2 mM of CaCl2, 10 mM of HEPES, 10 mM of glucose; pH 7.4) using a 96-well plate automatic washing device (Bio Tek), then reacted with HEPES buffer solution containing 5 μM fluo-3/AM and 0.001% Pluronic F-127 under room temperature for 1 hour, to label with fluorescent dye, and then further washed two times with HEPES buffer solution.
Thereafter, at 10 minutes before the measurement using device FDSS6000, a washing with HEPES buffer solution containing 10 mM CaCl2 was conducted once more, and the final volume was adjusted to 81 μl. Besides the above 96-well plate containing the cells, additional two drug 96-well plates were provided, wherein the 96-well plates contain inhibiting drug and KCl (final concentration: 75 mM) for activating T-type calcium channel, respectively. Since most of cell-based HTS devices are equipped with a liquid application system for injection of drug, but have no liquid sucking system, the inhibiting drug to be tested and KCl were respectively provided at the five-times higher concentration in 10 mM CaCl2 HEPES buffer solution at the amount of 27 μl, diluted five-times at the final cell plate volume of 135 μl, and then used in this test. The concrete method of measurement using FDSS6000 was as follows: After recording the reference value of 20 seconds, the change of intracellular Ca^2+ concentration which induced by treatment of the inhibiting drug to be tested for 75 seconds followed by administration of KCl was measured, wherein the percentage (%) inhibition effect of the test drug, through estimating the area of ratio value of 340/380 in the control without treatment of the test drug as 100%. As a reference drug, mibefradil was used.
For accurate calcium-imagination, the light source of 4 xenon lamps in FDSS6000 were radiated to make the cells exposed selectively to the excitation wavelength (340 nm and 380 nm) by computer-controlled filter wheel. Data was obtained at interval of each 1.23 second. The emitter fluorescence light inflowed through long-pass filter was obtained as an average 340/380 ratio value for each well in the 96-wells by using CCD camera and digital fluorescence analyzer in FDSS6000. All image data and analyses were obtained by using FDSS6000-exclusive program provide from Hamamatsu Photonics.

Setting [2] is: Table 4 (Chemical Formula 3 series).
Where [3] appears, read: Table 3 (Chemical Formula 2 series).

T1 sequence (O43497 whole entry): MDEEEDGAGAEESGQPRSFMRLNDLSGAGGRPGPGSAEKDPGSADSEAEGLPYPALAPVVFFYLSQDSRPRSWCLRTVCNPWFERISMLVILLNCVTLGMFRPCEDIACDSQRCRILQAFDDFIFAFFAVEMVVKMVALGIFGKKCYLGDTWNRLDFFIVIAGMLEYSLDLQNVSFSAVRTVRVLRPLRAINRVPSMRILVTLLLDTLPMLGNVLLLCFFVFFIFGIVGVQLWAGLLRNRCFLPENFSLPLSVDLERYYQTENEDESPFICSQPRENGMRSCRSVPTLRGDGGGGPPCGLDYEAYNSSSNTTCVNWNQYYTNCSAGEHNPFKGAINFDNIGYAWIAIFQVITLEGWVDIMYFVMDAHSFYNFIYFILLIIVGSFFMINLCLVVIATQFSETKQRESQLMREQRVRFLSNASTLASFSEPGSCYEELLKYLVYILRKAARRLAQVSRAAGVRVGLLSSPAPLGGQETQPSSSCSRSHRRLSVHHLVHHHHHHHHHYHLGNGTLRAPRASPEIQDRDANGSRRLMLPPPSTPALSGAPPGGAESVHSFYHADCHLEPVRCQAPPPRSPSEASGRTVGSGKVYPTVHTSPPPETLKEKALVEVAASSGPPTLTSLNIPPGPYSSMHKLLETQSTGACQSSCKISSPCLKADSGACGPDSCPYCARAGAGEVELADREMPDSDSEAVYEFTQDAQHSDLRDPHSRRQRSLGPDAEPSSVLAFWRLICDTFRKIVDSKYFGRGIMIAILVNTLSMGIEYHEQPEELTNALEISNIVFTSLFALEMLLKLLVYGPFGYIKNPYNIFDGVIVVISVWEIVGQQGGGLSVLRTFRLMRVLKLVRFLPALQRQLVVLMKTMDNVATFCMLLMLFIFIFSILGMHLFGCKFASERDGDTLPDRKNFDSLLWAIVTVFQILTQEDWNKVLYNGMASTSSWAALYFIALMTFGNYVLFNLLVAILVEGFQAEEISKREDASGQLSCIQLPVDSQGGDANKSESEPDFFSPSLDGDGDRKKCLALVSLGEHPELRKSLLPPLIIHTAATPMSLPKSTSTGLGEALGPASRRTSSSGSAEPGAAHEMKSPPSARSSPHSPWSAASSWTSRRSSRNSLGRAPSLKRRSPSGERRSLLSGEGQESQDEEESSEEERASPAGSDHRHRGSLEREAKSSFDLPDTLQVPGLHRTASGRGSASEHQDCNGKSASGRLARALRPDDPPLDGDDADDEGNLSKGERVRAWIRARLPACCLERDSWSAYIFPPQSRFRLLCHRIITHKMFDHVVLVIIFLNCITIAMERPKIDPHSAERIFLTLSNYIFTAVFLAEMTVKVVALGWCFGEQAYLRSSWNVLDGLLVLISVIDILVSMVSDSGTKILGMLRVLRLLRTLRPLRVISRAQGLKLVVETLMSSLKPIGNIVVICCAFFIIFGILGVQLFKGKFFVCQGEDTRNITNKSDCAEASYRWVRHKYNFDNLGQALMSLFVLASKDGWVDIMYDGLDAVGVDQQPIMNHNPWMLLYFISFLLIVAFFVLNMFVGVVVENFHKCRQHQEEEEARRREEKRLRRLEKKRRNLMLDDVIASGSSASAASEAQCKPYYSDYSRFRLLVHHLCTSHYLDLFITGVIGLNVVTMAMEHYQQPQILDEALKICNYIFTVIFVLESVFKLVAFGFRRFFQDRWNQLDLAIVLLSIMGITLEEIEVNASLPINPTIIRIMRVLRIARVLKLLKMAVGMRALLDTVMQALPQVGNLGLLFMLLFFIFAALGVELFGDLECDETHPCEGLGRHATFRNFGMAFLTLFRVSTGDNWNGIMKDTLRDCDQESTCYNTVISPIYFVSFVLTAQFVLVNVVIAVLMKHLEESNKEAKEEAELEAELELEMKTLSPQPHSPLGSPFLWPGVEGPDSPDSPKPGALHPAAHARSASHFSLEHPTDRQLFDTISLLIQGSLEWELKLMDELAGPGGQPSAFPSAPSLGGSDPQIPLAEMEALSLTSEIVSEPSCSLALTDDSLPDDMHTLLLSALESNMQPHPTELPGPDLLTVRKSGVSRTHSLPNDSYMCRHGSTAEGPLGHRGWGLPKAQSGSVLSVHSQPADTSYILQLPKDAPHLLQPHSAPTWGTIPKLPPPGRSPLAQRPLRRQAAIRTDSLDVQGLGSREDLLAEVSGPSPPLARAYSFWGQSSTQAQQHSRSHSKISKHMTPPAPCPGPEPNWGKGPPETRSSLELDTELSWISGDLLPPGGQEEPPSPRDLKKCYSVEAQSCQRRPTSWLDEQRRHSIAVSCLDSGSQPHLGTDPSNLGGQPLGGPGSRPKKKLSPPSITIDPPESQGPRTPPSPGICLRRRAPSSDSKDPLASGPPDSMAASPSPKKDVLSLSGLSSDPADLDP

With `Br.NC(N)=Nc1nc(-c2ccc(Cl)c(Cl)c2)cs1` [KHG24390, 2-(4-(3,4-dichlorophenyl)thiazole-2-yl)guanidine hydrobromide], the melting point (usually the temperature of the solid-liquid transition) worked out at 256.3 °C. In addition, the inhibition (in general, the share of the control response that was lost under treatment) at 10 µM in data set [1] (setting [2]) was 7.32%.

In the case of `COc1ccc(NC(=O)Cc2csc(N=C(N)N)n2)cc1F.Cl` [KHG23179, 2-(2-(diaminomethyleneamino)thiazole-4-yl)-N-(3-fluoro-4-methoxyphenyl)acetamide hydrochloride], the melting point was 225.8 to 228.4 °C. Further, the “% Inhibition [α1G, 10 μM) using FDSS6000” value in data set [1] (10 μM, Table 3 (Chemical Formula 2 series), hydrochloride) was 30.76%.

`Cl.NC(N)=Nc1nc(-c2ccc(-c3ccccc3)cc2)cs1` [KHG24038, 2-(4-(biphenyl-4-yl)thiazole-2-yl)guanidine hydrochloride] had a melting point of 300.3 °C. Moreover, in data set [1] (setting [2]), the inhibition at 10 µM came to 14.2%.

`Br.COc1ccc(-c2csc(N=C(N)N)n2)c(F)c1` [KHG24377, 2-(4-(2-fluoro-4-methoxyphenyl)thiazole-2-yl)guanidine hydrobromide]: the melting point is 202.6 °C. Further, the inhibition at 10 µM in data set [1] (setting [2]) was determined as 20.2%.

On to `Cl.NC(N)=Nc1nc(-c2ccc3c(c2)OCC(=O)N3)cs1` [KHG24037, 2-(4-(3-oxo-3,4-dihydro-2H-benzo[b][1,4]oxazine-7-yl)thiazole-2-yl)guanidine hydrochloride], for which the melting point came out at 233.3 °C. Moreover, the inhibition at 10 µM in data set [1] (setting [2]) is 21.2%.

With `Cl.NC(N)=Nc1nc(CC(=O)NCc2ccc(F)c(F)c2)cs1` [KHG23189, 2-(2-(diaminomethyleneamino)thiazole-4-yl)-N-(3,4-difluorobenzyl)acetamide hydrochloride], the melting point fell in the range of 206.9 to 207.6 °C. The inhibition at 10 µM in data set [1] (setting [3]) amounted to 19.3%.

In turn, `Cl.NC(N)=Nc1nc(CC(=O)Nc2cc(Cl)ccc2F)cs1` [KHG23172, N-(5-chloro-2-fluorophenyl)-2-(2-(diaminomethyleneamino)thiazole-4-yl)acetamide hydrochloride] came in with a melting point of 209.3 to 210 °C. Moreover, in data set [1] (setting [3]), the inhibition at 10 µM was 27.6%.

As to `Br.CCc1ccc(-c2csc(N=C(N)N)n2)cc1` [KHG24387, 2-(4-(4-ethylphenyl)thiazole-2-yl)guanidine hydrobromide], the melting point worked out at 234.8 °C. Moreover, in data set [1] (setting [2]), the inhibition at 10 µM was 17.1%.

`Br.NC(N)=Nc1nc(-c2cccc(Cl)c2)cs1` [KHG24388, 2-(4-(3-chlorophenyl)thiazole-2-yl)guanidine hydrobromide] yielded a melting point of 210.4 °C. The inhibition at 10 µM in data set [1] (setting [2]) was 10.8%.

Consider `Cl.NC(N)=Nc1nc(CC(=O)Nc2cc(Cl)cc(Cl)c2)cs1` [KHG23185, 2-(2-(diaminomethyleneamino)thiazole-4-yl)-N-(3,5-dichlorophenyl)acetamide hydrochloride], for which the melting point was 248.5 to 249.2 °C. In data set [1] (setting [3]), the inhibition at 10 µM is 12.3%.

As for `Br.NC(N)=Nc1nc(-c2ccc(Cl)cc2Cl)cs1` [KHG24379, 2-(4-(2,4-dichlorophenyl)thiazole-2-yl)guanidine hydrobromide], the melting point was found to be 173 °C. In addition, the inhibition at 10 µM in data set [1] (setting [2]) was 16.8%.

Compound `Cl.NC(N)=Nc1nc(-c2ccc(Cl)cc2)cs1` [KHG24024, 2-(4-(4-chlorophenyl)thiazole-2-yl)guanidine hydrochloride] displayed a melting point of 264.9 °C. Also, the inhibition at 10 µM in data set [1] (setting [2]) stood at 13%.

Compound `Br.NC(N)=Nc1nc(-c2cccc(C(F)(F)F)c2)cs1` [KHG24385, 2-(4-(3-(trifluoromethyl)phenyl)thiazole-2-yl)guanidine hydrobromide] displayed a melting point of 224.8 °C. In addition, the inhibition at 10 µM in data set [1] (setting [2]) was 15.8%.

Take `Cc1ccc(NC(=O)Cc2csc(N=C(N)N)n2)c(Br)c1.Cl` [KHG23191, N-(2-bromo-4-methylphenyl)-2-(2-(diaminomethyleneamino)thiazole-4-yl)acetamide hydrochloride]: the melting point is 219.7 to 220.5 °C. The inhibition at 10 µM in data set [1] (setting [3]) worked out at 18%.

For the compound `Br.COc1ccc(-c2csc(N=C(N)N)n2)c(OC)c1` [KHG24376, 2-(4-(2,4-dimethoxyphenyl)thiazole-2-yl)guanidine hydrobromide], the melting point stood at 213 °C. Moreover, the inhibition at 10 µM in data set [1] (setting [2]) amounted to 16.1%.

On to `Br.NC(N)=Nc1nc(-c2cccc(Br)c2)cs1` [KHG24386, 2-(4-(3-bromophenyl)thiazole-2-yl)guanidine hydrobromide], for which the melting point amounted to 179.8 °C. In addition, the inhibition at 10 µM in data set [1] (setting [2]) came to 10.9%.

For the compound `Br.NC(N)=Nc1nc(-c2ccccc2F)cs1` [KHG24384, 2-(4-(2-fluorophenyl)thiazole-2-yl)guanidine hydrobromide], the melting point was determined as 229.6 °C. Further, the inhibition at 10 µM in data set [1] (setting [2]) is 20.3%.

The compound `Br.NC(N)=Nc1nc(-c2ccc(Br)cc2)cs1` [KHG24381, 2-(4-(4-bromophenyl)thiazole-2-yl)guanidine hydrobromide] registered a melting point of 278.5 °C. In data set [1] (setting [2]), the inhibition at 10 µM turned out to be 20.8%.

Compound `Cc1ccc(NC(=O)Cc2csc(N=C(N)N)n2)c(Cl)c1.Cl` [KHG23174, N-(2-chloro-4-methylphenyl)-2-(2-(diaminomethyleneamino)thiazole-4-yl)acetamide hydrochloride] registered a melting point of 218.6 to 220 °C. The inhibition at 10 µM in data set [1] (setting [3]) is 18.8%.

Consider `Br.NC(N)=Nc1nc(-c2ccccc2)cs1` [KHG24380, 2-(4-phenylthiazole-2-yl)guanidine hydrobromide], for which the melting point worked out at 209.5 °C. For the same compound, in data set [1] (setting [2]), the inhibition at 10 µM was 19.6%.

In turn, `Cl.NC(N)=Nc1nc(CC(=O)Nc2ccc(F)cc2Cl)cs1` [KHG23169, N-(2-chloro-4-fluorophenyl)-2-(2-(diaminomethyleneamino)thiazole-4-yl)acetamide hydrochloride] displayed a melting point of 232.8 to 233.9 °C. The inhibition at 10 µM in data set [1] (setting [3]) came to 23.2%.

`Br.Cc1cccc(-c2csc(N=C(N)N)n2)c1` [KHG24382, 2-(4-m-tolylthiazole-2-yl)guanidine hydrobromide] displayed a melting point of 232.4 °C. The inhibition at 10 µM in data set [1] (setting [2]) was found to be 22.3%.

In turn, `Cl.N#Cc1ccc(NC(=O)Cc2csc(N=C(N)N)n2)cc1` [KHG23176, N-(4-cyanophenyl)-2-(2-(diaminomethyleneamino)thiazole-4-yl)acetamide hydrochloride] came in with a melting point of 218.4 to 219.4 °C. For the same compound, the inhibition at 10 µM in data set [1] (setting [3]) was 20.5%.

(Values after patent publication US8143296B2, “Thiazole-based compound and inhibitor of T-type calcium channel containing the same” (Korea Institute of Science and Technology, priority 2006, dated 2012).)
